We go through three compounds from patent US12103937B2, “Substituted pyridines and pyridazines as TYK2 inhibitors” (Sudo Biosciences Limited, priority 2021, dated 2024).

Assay [1] relates to HEK-Blue IL-2 reporter cells, IL-2-stimulated STAT5 SEAP reporter. The experiment in a line: HEK-Blue IL-2 reporter assay (SEAP) for determining selectivity. Format: cell-based. The note with it: 4 ng/mL human recombinant IL-2, SEAP readout, read-out: IL-2 (SEAP selectivity, IC50 class). How it is done: (§1) HEK-Blue™ IL-2 and IFNγ reporter cells with a stably-integrated cytokine receptor and STAT5 or STAT1 express STAT-inducible secreted embryonic alkaline phosphatase (SEAP) reporter gene upon cytokine stimulation. These cells were plated in DMEM (Gibco) containing 10% heat-inactivated FBS (Gibco) and 100 U/mL PenStrep (Gibco) at 37° C. under 5% CO2 conditions for 20-22 hours. The cells were then pretreated with serially diluted test compounds for 60 min prior to stimulation with either 4 ng/mL human recombinant IL-2 (Miltenyl Biotech) or 50 ng/mL human recombinant IFNγ (InvivoGen) for 24 hours. SEAP induction was measured using the QUANTI-Blue™ Solution (InvivoGen) according to the manufacturer's instructions.

The test system of assay [2] is HEK-Blue IFNγ reporter cells, IFNγ-stimulated STAT1 SEAP reporter. Description: HEK-Blue IFNγ reporter assay (SEAP) for determining selectivity. Type of assay: cell-based. Particulars: Homo sapiens, 50 ng/mL human recombinant IFNγ, SEAP readout, read-out: IFN-γ (SEAP selectivity, IC50 class). Here is the method: as §1

As to `[2H]C([2H])([2H])NC(=O)c1nnc(NC(=O)C2CC2)cc1Nc1nccc2c1N(C)[C@@H](C)c1nc(C)nn1-2` [Compound 112, (S)-6-(cyclopropanecarboxamido)-N-(methyl-d3)-4-((2,4,5-trimethyl-4,5-dihydropyrido[3,4-e][1,2,4]triazolo[1,5-a]pyrazin-6-yl)amino)pyridazine-3-carboxamide], the 50% inhibitory concentration (IC50) in assay [1] and in assay [2] was above 1000 nM each time.
On to `[2H]C([2H])([2H])NC(=O)c1nnc(NC(=O)C2CC2)cc1Nc1nccc2c1N(C)[C@H](C([2H])([2H])[2H])c1nn(C)nc1-2` [Compound 114, (R)-6-(cyclopropanecarboxamido)-4-((2,5-dimethyl-4-(methyl-d3)-4,5-dihydro-2H-[1,2,3]triazolo[4,5-c][1,7]naphthyridin-6-yl)amino)-N-(methyl-d3)pyridazine-3-carboxamide], for which, in assay [1], the IC50 (as a rule, the point on the concentration scale where inhibition reaches its midpoint) was above 1000 nM.
On to `[2H]C([2H])([2H])NC(=O)c1nnc(NC(=O)[C@H]2C[C@H]2F)cc1Nc1nccc2c1N(C)Cc1nn(C)nc1-2` [Compound 115, 4-((2,5-dimethyl-4,5-dihydro-2H-[1,2,3]triazolo[4,5-c][1,7]naphthyridin-6-yl)amino)-6-((1R,2R)-2-fluorocyclopropane-1-carboxamido)-N-(methyl-d3)pyridazine-3-carboxamide], for which the figures for the half-inhibitory concentration (IC50) in assay [1] and in assay [2] were 300 to 1000 nM and 30 to 300 nM, respectively.
